Laboratory results reported in patent publication US20240358679A1, “PHARMACEUTICAL AND FOOD COMPOSITIONS FOR THE PREVENTION, ALLEVIATION, OR TREATMENT OF INFLAMMATORY DISEASES COMPRISING 1-ALKYL-5-ARYLIDENE-2-SELENOXOIMIDAZOLIDIN-4-ONE AND ITS DERIVATIVES” (priority 2022, published 2024).

Legend:
Format in all cases: cell-based
[1] = test system: SH-SY5Y cell line; assay: Cell viability (MTT assay); settings: compound 0.5 μM; for cell viability after MPP+: MPP+ (2 mM) 24 hours; for cell viability after rotenone: rotenone (2 μM) 24 hours
Procedure: The treatment of cell lines with the toxic substances MPP+ or rotenone induces cytotoxicity due to various inflammatory and immune response abnormalities. The viability of the cells under these conditions can be measured using the MTT assay.
Specifically, the SH-SY5Y cell line was treated with 0.5 μM of Compound 1aaa (Compound 1), 1aca (Compound 24), 1ace (Compound 27), 1ahe (Compound 44) or 1aje (Compound 62) and then with MPP+ (2 mM) or rotenone (2 μM) for 24 hours. Cell viability in the case of being treated with each compound is illustrated in FIGS. 4 and 5.

[2] = test system: SH-SY5Y cell line; assay: Inhibition of reactive oxygen species generation (CM-H2DCFDA fluorescence); settings: compound 10 μM
Procedure: It is known that the administration of MPP+ or rotenone to cell lines results in the generation of reactive oxygen species (ROS) due to mitochondrial inhibition, the activation of NOX enzymes and the like. The excessively generated ROS can induce various inflammatory responses through multiple pathways. The ROS generated in this process react with the CM-H2DCFDA reagent to produce fluorescence, thereby allowing the indirect quantification of ROS.
Specifically, the SH-SY5Y cell line was treated with Compound 1aaa (Compound 1, 10 μM), apocynin (5 μM), or allopurinol (50 μM), and then with MPP+ (2 mM) or rotenone (2 μM) for 24 hours. The effect of each compound to inhibit the generation of reactive oxygen species is illustrated in FIGS. 2 and 3 as a relative percentage to that of the control group.

[3] = test system: Nrf-2; assay: Nrf-2 induction, Western blot of nuclear fraction; settings: SH-SY5Y, compound 10 μM, 24 hours, increase
Procedure: When oxidative stress caused by reactive oxygen species increases in cells, the synthesis of antioxidants increases in response to this. One of the transcription factors mediating this antioxidant response is Nrf-2. As the transcription factor Nrf-2 enters the nucleus and the expression of genes related to antioxidation increases, the antioxidant capacity of cells increases,
Specifically, the SH-SY5Y cell line was exposed to Compound 1aaa (Compound 1, 10 μM) for 24 hours and then the cells were taken. Thereafter, the nuclear fraction was extracted, then Western blotting was performed to analyze the amount of Nrf-2 in the nucleus, and the results are illustrated in FIG. 6.

[4] = test system: BV2 cell lines; assay: Anti-inflammatory activity: morphological changes of LPS-treated BV2 cells; settings: compound 0.1, 1, 10 μg/ml for 2 hours, then LPS (10 μg/ml), 24 hours
Procedure: (§1) To evaluate the anti-inflammatory activity of the compounds of the present invention, the morphological changes related to inflammation in cells and the suppression of the expression of inflammatory proteins (IL-1R and COX2) were assessed.
(§2) Specifically, BV2 cell lines were treated with compound 1aaa (0.1, 1, 10 μg/ml) for 2 hours, followed by treatment with LPS (10 μg/ml), and then cultured for 24 hours. Additionally, Western blot analysis was performed to analyze the expression of inflammatory proteins, and the results are shown in FIGS. 8 and 9.

[5] = test system: IL-1β; assay: Anti-inflammatory activity: Western blot of IL-1β expression in LPS-treated BV2 cells; settings: BV2, compound 0.1, 1, 10 μg/ml, LPS (10 μg/ml), 24 hours
Procedure: as §1, §2

[6] = test system: COX2; assay: Anti-inflammatory activity: Western blot of COX2 expression in LPS-treated BV2 cells; settings: BV2, compound 0.1, 1, 10 μg/ml, LPS (10 μg/ml), 24 hours
Procedure: as §1, §2

SMILES | cell viability after MPP+ [1] | cell viability after rotenone [1] | generation of reactive oxygen species after MPP+ ([2]; MPP+ (2 mM) 24 hours) | generation of reactive oxygen species after rotenone ([2]; rotenone (2 μM) 24 hours) | amount of Nrf-2 in the nucleus [3] | activation of BV2 macrophages (morphology) [4] | expression of IL-1β [5] | expression of COX2 [6]
CCc1ccc(N2C(=O)/C(=C\c3ccc(O)cc3O)N(C)C2=[Se])cc1 [Compound 24, 5-(2,4-dihydroxybenzylidene)-3-(4-ethylphenyl)-1-methyl-2-selenoxoimidazolidin-4-one] | improve cell viability | improve cell viability |  |  |  |  |  | 
CCc1ccc(N2C(=O)/C(=C\c3cc(O)cc(O)c3)N(C)C2=[Se])cc1 [Compound 27, 5-(3,5-dihydroxybenzylidene)-3-(4-ethylphenyl)-1-methyl-2-selenoxoimidazolidin-4-one] | improve cell viability | improve cell viability |  |  |  |  |  | 
CN1C(=[Se])N(CCc2ccccc2)C(=O)/C1=C\c1cc(O)cc(O)c1 [Compound 44, 5-(3,5-dihydroxybenzylidene)-1-methyl-3-phenethyl-2-selenoxoimidazolidin-4-one] | improve cell viability | improve cell viability |  |  |  |  |  | 
CCCCCCN1C(=O)/C(=C\c2cc(O)cc(O)c2)N(C)C1=[Se] [Compound 62, 5-(3,5-dihydroxybenzylidene)-3-hexyl-1-methyl-2-selenoxoimidazolidin-4-one] | improve cell viability | improve cell viability |  |  |  |  |  | 
CN1C(=[Se])N(c2ccccc2)C(=O)/C1=C\c1ccc(O)cc1O [Compound 1, 5-(2,4-dihydroxybenzylidene)-1-methyl-3-phenyl-2-selenoxoimidazolidin-4-one] | improve cell viability | improve cell viability | effectively inhibits | effectively inhibits | about 1.5 times | inhibited the activation of BV2 macrophages in a dose-dependent manner | significantly suppressed | significantly suppressed
